Assay results reported in ChEMBL document CHEMBL1201862, “PubChem BioAssay data set” (2004).
Calls of active or inactive are those of the source. Unless noted, the rule behind the calls is not given here.

How the values were obtained:
[1] = biological target: 1-phosphatidylinositol 4,5-bisphosphate phosphodiesterase gamma-1 (Homo sapiens, UniProt P19174); assay: Counterscreen for inhibitors of phospholipase C isozymes (PLC-B3): Fluorescence-based biochemical high throughput dose response assay to identify inhibitors of phospholipase C isozymes (PLC-gamma1).
[2] = biological target: 1-phosphatidylinositol 4,5-bisphosphate phosphodiesterase beta-3 (Homo sapiens, UniProt Q01970); assay: Fluorescence-based biochemical high throughput dose response assay to identify inhibitors of phospholipase C isozymes (PLC-B3).
[3] = biological target: Kallikrein-7 (Homo sapiens, UniProt P49862); assay: Fluorescence Intensity-based biochemical primary high throughput dose response assay to identify activators of kallikrein-7 (K7) zymogen.
[4] = inhibitors of PGC1a acetylation in cells, dose response, cell-based, cherry-picked samples (AID 720514); format: functional;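 also: potency may reflect raised or lowered acetylation signal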
[5] = cytotoxicity toward DRD oncogenic fibroblasts, dose response, cell-based, non-viral oncogenic, luminescence (AID 1934); format: functional; conditions: Homo sapiens
[6] = A2780 ovarian cancer cell cytotoxicity, dose response, cytotoxicity control, plate reader, dry powder samples (AID 743046); format: functional, cell-based
[7] = IOSE-T80 ovarian epithelial cell cytotoxicity, dose response, cytotoxicity control for PAX8 inhibitor project, plate reader, dry powder samples (AID 743045); format: functional, cell-based
[8] = system: BJ; assay: cytotoxicity toward Ras-transformed BJeLR fibroblasts, dose response, cell-based, alamar blue fluorescence, cherrypicked samples (AID 2631); format: functional; conditions: Homo sapiens;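 also: confirmatory dose-response assay in RAS-dependent BJ fibroblasts engineered with TERT, LT and ST, with cytotoxicity read by fluorescence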
[9] = system: BJ; assay: cells; format: functional, cell-based; conditions: Homo sapiens
[10] = control 3'UTR Renilla luciferase suppression, dose response, counter-screen for Shn3 inhibitor project, cell-based, Clone20-Shn3RL, cherry-picked (AID 624133); format: functional
[11] = PAX5 activity inhibitors, dose response, selectivity assay for PAX8 inhibitor project, cell-based, plate reader, dry powder samples (AID 743047); format: functional;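 also: HEK293 cells carrying a Pax5 driven CD19 promoter luciferase reporter; potency of inhibitors that lower reporter luminescence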
[12] = cytotoxicity dependent on PAX8, dose response, cell-based, plate reader, dry powder (AID 743049); format: functional
[13] = system: BJ; assay: cytotoxicity toward BJ-TERT-LT-ST fibroblasts, dose response, cell-based, RAS-independent, luminescence (AID 1935); format: functional; conditions: Homo sapiens;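 also: BJ fibroblasts immortalized with TERT plus LT and ST oncogenes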
[14] = PAX2 cell-based inhibition, dose response, selectivity assay for PAX8 inhibitor project, plate reader, dry powder samples (AID 743048); format: functional;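 also: HEK293 cells carrying a WT1 promoter luciferase reporter driven by expressed Pax2; potency is for inhibition of Pax2 driven reporter signal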
[15] = cytotoxicity in COV362 ovarian cancer cells, dose response, cytotoxicity control for PAX8 inhibitor project, cell-based, plate reader, dry powder, SA12 (AID 743144); format: functional
[16] = cytotoxicity in COV434 cells, dose response, cytotoxicity control for PAX8 inhibitor project, cell-based, plate reader, dry powder, SA7 (AID 743145); format: functional
[17] = NIH:OVCAR-3 ovarian cancer cell cytotoxicity, dose response, PAX8 inhibitor project, plate reader, dry powder samples (AID 743044); format: functional, cell-based
[18] = IGROV1 ovarian cancer cell cytotoxicity, dose response, PAX8 inhibitor project, plate reader, dry powder samples (AID 743043); format: functional, cell-based; conditions: IGROV-1
[19] = system: BJ; assay: cytotoxicity toward BJ-TERT fibroblasts, dose response, cell-based, RAS-independent, luminescence (AID 1933); format: functional; conditions: Homo sapiens
[20] = biological target: Paired box protein Pax-8 (Homo sapiens, UniProt Q06710); assay: inhibitors of PAX8-driven TPO luciferase reporter, dose response, RMG-I cells, cherry-pick (AID 687027); format: functional, cell-based;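 also: luciferase reporter driven by Pax8 target thyroperoxidase promoter measured by SteadyGlo luminescence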
[21] = biological target: T1, Heat shock factor protein 1 (Mus musculus, UniProt P38532); assay: inhibition of MG132-induced HSE-luciferase signal, confirmation, cell-based, NIH3T3, luminescence, dose retest (AID 2382); format: functional;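 also: NIH3T3 fibroblasts with HSF1-driven luciferase reporter stressed by proteasome inhibitor MG132; luminescence from HSF1-driven luciferase expression after 8 hours of MG132 stress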
T1 sequence (P38532 whole entry): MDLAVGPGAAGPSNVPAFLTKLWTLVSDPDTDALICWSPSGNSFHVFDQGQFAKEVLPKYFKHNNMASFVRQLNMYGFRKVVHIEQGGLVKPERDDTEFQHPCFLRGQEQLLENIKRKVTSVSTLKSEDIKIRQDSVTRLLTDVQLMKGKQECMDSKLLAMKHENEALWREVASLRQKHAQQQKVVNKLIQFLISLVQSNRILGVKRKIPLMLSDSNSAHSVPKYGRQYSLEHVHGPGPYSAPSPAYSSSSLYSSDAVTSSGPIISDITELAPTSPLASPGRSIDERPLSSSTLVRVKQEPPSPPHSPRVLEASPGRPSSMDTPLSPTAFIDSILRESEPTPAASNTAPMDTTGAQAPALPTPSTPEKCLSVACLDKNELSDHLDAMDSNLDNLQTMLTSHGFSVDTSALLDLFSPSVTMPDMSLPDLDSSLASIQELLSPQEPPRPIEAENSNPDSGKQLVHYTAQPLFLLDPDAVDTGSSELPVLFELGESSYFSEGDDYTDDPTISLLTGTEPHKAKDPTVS

[22] = Shn3 3'UTR reporter inhibitors, dose response, cell-based, Clone20 osteoblasts, firefly luciferase, cherry-picked (AID 624132); format: functional;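 also: firefly luciferase luminescence from reporter carrying the Shn3 3'UTR in osteoblasts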
[23] = cytotoxicity in HEK-293T cells, dose response, cytotoxicity control for TCR NF-kB inhibitor project, luminescence, T-cell screen hits (AID 489026); format: functional, cell-based;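 also: cells exposed to compound about 14 hours before the viability readout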
[24] = cytotoxicity in OV-90 ovarian cancer cells, dose response, PAX8 inhibitor project, cell-based, plate reader, dry powder, SA8 (AID 743149); format: functional
[25] = cytotoxicity in OVCAR4 cells, dose response, cytotoxicity control for PAX8 inhibitor project, cell-based, plate reader, dry powder, SA11 (AID 743150); format: functional; conditions: OVCAR-4
[26] = Artemis endonuclease inhibitor potency, dose response, biochemical, fluorescence intensity (AID 720701); format: functional;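 also: Artemis endonuclease enzyme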
[27] = Late stage assay provider results from the probe development effort to identify inhibitors of the Plasmodium falciparum M18 Aspartyl Aminopeptidase (M18AAP): radiolabel-based cell-based dose response assay to identify compounds that inhibit P. falciparum growth in RBCs, Set 2..; format: functional
[28] = biological target: T2, Oxysterols receptor LXR-beta (Homo sapiens, UniProt P55055); assay: LXR agonists, Gal4 luciferase reporter, dose response, counter-screen for ssDAF-12 agonist project, cell-based, luminescence, HEK293, S. stercoralis campaign (AID 720737); format: functional; conditions: read-out: IC50 (the source's name)
T2 sequence (P55055 whole entry): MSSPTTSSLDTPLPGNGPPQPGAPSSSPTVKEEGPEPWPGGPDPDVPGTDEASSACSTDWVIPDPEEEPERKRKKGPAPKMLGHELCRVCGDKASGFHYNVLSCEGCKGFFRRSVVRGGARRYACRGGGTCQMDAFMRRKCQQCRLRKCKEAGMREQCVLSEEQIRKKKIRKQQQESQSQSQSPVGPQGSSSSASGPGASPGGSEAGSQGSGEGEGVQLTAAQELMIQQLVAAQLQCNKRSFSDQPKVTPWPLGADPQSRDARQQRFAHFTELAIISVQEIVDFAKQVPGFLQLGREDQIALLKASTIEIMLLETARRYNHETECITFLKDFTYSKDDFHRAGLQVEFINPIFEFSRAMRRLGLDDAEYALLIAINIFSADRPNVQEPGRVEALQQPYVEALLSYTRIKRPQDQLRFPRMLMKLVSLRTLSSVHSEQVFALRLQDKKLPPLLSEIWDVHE

[29] = Luminescence-based cell-based high throughput dose response assay to identify activators of the DAF-12 from the parasite S. stercoralis (ssDAF-12).; format: functional
[30] = biological target: fMet-Leu-Phe receptor (Homo sapiens, UniProt P21462); assay: FPR ligands, dose response (AID 519); format: functional
[31] = biological target: Potassium channel subfamily K member 3 (Homo sapiens, UniProt O14649); assay: TASK1 (KCNK3) potassium channel inhibitors, SAR follow-up, CHO cells, FluxOR thallium flux (AID 652212); format: functional
[32] = cytotoxicity in A549 cells, dose response, cytotoxicity control, cell-based, cherry-picked samples (AID 1053184); format: functional
[33] = cytotoxicity in HEK293 cells, dose response, cytotoxicity control, cell-based, cherry-picked samples (AID 1053185); format: functional
[34] = cytotoxicity in HepG2 cells, dose response, cytotoxicity control, cell-based, cherry-picked samples (AID 1053183); format: functional
[35] = intracellular Trypanosoma cruzi inhibitors in host cells – cell-based, plate reader, cherry-pick samples, set 3, dose response (AID 651818); format: functional;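 also: compounds incubated with infected cells for about four days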
[36] = LOX IMVI melanoma cell viability loss, dose response, HRAS target identification, CellTiter-Glo ATP luminescence, 8/24/48 h, dry powder (AID 720602); format: functional, cell-based
[37] = CCRF-CEM leukemia cell viability loss, dose response, HRAS target identification, CellTiter-Glo ATP luminescence, 8/24/48 h, dry powder (AID 720607); format: functional, cell-based
[38] = HT-29 colorectal cell cytotoxicity over time, dose response, HRas target identification project, CellTiter-Glo, multiple timepoints, dry powder (AID 720598); format: functional, cell-based
[39] = SR lymphoma cell viability over time, late-stage follow-up, mechanism study for HRAS target identification, CellTiter-Glo ATP luminescence, 8-48 h, dry powder (AID 720608); format: functional, cell-based
[40] = SNB-19 glioblastoma cell viability over time, late-stage follow-up, mechanism study for HRAS target identification, CellTiter-Glo ATP luminescence, 8-48 h, dry powder (AID 720611); format: functional, cell-based
[41] = HeLa cell viability over time, late-stage follow-up, mechanism study for HRAS target identification, CellTiter-Glo ATP luminescence, 8-48 h, dry powder (AID 720609); format: functional, cell-based
[42] = HUVEC endothelial cell viability loss, dose response, cytotoxicity control for HRAS target identification, CellTiter-Glo ATP luminescence, 8/24/48 h, dry powder (AID 720604); format: functional, cell-based
[43] = SNB-19 glioblastoma cell viability loss, dose response, HRAS target identification, Alamar Blue fluorescence, 8/24/48 h, dry powder (AID 720600); format: functional, cell-based
[44] = U-251 glioblastoma cell viability loss, late-stage follow-up, mechanism study for HRAS target identification, CellTiter-Glo ATP luminescence, several timepoints, dry powder (AID 720616); format: functional, cell-based
[45] = C2C12 myoblast ATP-based viability loss, dose response, cytotoxicity control for HRAS target identification, cell-based, CellTiter-Glo ATP luminescence, 8/24/48 h, dry powder (AID 720603); format: functional
[46] = SNB-75 astrocytoma cell viability loss, late-stage follow-up, mechanism study for HRAS target identification, CellTiter-Glo ATP luminescence, several timepoints, dry powder (AID 720624); format: functional, cell-based

Sequence of 1-phosphatidylinositol 4,5-bisphosphate phosphodiesterase gamma-1 (P19174 whole entry): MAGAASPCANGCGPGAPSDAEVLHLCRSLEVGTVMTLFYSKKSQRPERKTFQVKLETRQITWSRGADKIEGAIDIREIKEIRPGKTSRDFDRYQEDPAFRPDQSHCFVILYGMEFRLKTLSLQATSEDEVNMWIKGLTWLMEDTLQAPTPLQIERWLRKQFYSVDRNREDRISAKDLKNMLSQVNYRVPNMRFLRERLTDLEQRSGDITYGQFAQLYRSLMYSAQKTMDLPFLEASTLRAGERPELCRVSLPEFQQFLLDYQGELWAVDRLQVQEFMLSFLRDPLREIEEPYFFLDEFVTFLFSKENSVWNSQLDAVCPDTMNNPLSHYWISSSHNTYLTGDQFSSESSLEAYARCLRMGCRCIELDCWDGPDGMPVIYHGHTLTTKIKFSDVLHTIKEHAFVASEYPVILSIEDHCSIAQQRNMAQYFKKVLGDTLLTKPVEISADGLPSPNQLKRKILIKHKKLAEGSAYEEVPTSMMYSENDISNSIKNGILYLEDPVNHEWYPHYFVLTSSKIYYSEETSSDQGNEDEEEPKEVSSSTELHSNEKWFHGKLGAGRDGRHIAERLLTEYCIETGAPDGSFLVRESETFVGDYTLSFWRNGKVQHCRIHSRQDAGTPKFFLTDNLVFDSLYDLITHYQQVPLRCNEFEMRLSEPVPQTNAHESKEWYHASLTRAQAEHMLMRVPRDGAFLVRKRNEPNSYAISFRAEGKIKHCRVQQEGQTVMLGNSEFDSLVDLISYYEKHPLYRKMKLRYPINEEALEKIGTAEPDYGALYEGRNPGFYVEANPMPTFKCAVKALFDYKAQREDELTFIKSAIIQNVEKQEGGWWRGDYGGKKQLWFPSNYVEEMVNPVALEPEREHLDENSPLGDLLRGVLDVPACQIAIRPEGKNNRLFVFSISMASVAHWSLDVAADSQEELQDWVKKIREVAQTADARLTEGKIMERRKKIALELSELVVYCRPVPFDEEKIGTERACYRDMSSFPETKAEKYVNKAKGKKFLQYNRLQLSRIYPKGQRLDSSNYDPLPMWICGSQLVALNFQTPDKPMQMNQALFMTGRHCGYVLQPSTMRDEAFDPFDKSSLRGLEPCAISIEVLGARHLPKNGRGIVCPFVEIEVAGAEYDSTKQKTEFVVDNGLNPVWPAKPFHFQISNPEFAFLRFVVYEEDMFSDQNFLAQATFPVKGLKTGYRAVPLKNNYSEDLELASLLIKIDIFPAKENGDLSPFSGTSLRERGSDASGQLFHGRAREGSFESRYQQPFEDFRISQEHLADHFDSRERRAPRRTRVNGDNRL
Sequence of 1-phosphatidylinositol 4,5-bisphosphate phosphodiesterase beta-3 (Q01970 whole entry): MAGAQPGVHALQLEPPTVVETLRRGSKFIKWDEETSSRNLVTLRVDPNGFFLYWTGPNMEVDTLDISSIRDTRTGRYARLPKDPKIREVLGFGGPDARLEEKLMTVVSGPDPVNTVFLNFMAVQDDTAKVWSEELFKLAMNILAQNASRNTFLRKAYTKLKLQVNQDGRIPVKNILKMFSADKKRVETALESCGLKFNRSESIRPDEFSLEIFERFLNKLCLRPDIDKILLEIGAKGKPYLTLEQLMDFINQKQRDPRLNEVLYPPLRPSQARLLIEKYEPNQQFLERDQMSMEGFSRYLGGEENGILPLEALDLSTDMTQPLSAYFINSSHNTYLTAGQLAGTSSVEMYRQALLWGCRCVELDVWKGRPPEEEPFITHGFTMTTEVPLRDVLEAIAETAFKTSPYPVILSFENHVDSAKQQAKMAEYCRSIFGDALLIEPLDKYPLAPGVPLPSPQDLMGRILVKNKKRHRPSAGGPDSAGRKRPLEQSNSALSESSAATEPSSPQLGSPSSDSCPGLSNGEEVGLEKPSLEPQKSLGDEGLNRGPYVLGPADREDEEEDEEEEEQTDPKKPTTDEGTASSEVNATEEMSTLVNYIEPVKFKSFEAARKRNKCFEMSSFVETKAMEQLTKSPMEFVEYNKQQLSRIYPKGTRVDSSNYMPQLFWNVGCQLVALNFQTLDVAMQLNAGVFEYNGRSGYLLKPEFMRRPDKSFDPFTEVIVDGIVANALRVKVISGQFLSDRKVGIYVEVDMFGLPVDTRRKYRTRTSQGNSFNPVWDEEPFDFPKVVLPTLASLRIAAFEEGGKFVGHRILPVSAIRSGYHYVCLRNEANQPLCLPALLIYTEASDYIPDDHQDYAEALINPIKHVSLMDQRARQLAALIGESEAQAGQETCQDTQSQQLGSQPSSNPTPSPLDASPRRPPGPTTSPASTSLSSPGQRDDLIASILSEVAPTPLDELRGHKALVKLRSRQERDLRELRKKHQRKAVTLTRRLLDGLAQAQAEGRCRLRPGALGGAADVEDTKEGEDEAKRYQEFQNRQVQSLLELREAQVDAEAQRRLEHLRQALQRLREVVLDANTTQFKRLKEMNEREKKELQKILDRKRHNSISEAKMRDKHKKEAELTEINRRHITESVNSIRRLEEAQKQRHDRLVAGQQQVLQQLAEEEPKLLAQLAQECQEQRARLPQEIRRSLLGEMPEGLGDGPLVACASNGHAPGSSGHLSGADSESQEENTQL
Sequence of fMet-Leu-Phe receptor (P21462 whole entry): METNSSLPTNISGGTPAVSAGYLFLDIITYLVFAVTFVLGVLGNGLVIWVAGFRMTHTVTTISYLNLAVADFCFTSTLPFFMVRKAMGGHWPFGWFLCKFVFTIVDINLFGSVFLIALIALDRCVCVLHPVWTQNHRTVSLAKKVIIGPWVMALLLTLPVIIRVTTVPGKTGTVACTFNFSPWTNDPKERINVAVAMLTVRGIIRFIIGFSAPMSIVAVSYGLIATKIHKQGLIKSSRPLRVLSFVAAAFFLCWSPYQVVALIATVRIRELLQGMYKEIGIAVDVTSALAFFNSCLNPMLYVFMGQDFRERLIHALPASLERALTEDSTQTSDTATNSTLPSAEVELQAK
Sequence of Potassium channel subfamily K member 3 (O14649 whole entry): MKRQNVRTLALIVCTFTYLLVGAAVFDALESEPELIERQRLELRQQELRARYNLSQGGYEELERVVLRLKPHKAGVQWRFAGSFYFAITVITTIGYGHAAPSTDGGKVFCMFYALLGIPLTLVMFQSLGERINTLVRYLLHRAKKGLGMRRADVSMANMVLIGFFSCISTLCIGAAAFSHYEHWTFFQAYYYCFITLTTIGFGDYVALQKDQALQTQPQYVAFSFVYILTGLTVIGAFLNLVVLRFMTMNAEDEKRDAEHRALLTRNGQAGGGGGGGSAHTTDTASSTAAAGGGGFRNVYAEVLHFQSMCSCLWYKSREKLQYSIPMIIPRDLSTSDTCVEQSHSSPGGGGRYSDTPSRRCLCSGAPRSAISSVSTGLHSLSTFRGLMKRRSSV
Sequence of Kallikrein-7 (P49862 whole entry): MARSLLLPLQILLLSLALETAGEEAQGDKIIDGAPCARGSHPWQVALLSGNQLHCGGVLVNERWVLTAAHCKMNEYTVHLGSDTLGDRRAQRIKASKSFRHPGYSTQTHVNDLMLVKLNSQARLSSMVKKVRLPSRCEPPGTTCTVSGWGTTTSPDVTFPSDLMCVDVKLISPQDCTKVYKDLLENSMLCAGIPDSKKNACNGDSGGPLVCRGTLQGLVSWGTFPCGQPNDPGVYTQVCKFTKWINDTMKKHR
Sequence of Paired box protein Pax-8 (Q06710 whole entry): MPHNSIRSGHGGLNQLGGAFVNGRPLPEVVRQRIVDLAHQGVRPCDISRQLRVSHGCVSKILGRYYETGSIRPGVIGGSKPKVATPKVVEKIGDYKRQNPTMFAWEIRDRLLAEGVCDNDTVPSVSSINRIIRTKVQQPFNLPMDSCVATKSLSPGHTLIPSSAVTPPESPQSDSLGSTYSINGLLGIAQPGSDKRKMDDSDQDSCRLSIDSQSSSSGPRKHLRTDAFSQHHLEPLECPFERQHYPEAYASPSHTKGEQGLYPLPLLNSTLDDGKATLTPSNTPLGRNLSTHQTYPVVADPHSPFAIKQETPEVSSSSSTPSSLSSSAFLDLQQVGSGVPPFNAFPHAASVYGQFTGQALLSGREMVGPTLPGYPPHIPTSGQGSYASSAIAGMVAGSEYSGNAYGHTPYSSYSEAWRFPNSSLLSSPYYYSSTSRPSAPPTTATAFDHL

CCCCn1c(=O)n(CC(=O)Nc2ccc(OC)c(Cl)c2)c(=O)c2c1nc(CO)n2CCC
IC50 [1]: > 123 µM (inactive)
IC50 [2]: > 123 µM (inactive)

COc1cccc(CN2CC(C(=O)NCCc3cn4cccnc4n3)CCC2=O)c1 (stereo unspecified)
EC50 [3]: 23.9 µM (inactive)

Cc1nc2ccccc2c(=O)n1NC(=O)c1ccc(Cl)c([N+](=O)[O-])c1
AC50 [4]: 16.8 µM (active)

COc1ccc(C)cc1NS(=O)(=O)c1ccc(-c2cnc(C3CC3)o2)cc1
EC50 [5]: 0.388 µM (active)
AC50 [6]: 3.45 µM (active)
AC50 [7]: 0.217 µM (active)
EC50 [8]: < 0.104 µM (active)
EC50 [9]: 0.99 µM (active)
AC50 [10]: 6.58 µM (active)
AC50 [11]: 1.83 µM (active)
AC50 [12]: 5.69 µM (active)
EC50 [13]: 11.1 µM (inconclusive)
AC50 [14]: 8.91 µM (active)
AC50 [15]: 0.118 µM (active)
AC50 [16]: 0.337 µM (active)
AC50 [17]: 1.77 µM (active)
AC50 [18]: 1.49 µM (active)
EC50 [19]: 0.208 µM (active)
AC50 [20]: 0.734 µM (active)
EC50 [21]: 0.43 µM (active)
AC50 [22]: 3.76 µM (active)
IC50 [23]: > 80 µM (inactive)
AC50 [24]: 0.612 µM (active)
AC50 [25]: 0.199 µM (active)

Cc1cccc(NC(=O)c2sc3nc4c(c(-c5cccs5)c3c2N)CN(C)CC4)c1
IC50 [26]: > 20 µM (inactive)

COc1ccc(CCNc2c3ccccc3nc3ccccc23)cc1
IC50 [27]: 1.1 µM (active)

COc1ccc(-c2noc(CCC(=O)N3CCC(c4cc(C)ccc4C)CC3)n2)cc1
EC50 [28]: > 67.5 µM (inactive)
IC50 [29]: > 67.5 µM (inactive)

CCOc1ccc(C(=O)C2=C(O)C(=O)N(CC3CCCO3)C2c2ccco2)cc1 (stereo unspecified)
Ki [30]: 32 µM (inactive)

CCOc1ccccc1NC(=O)c1cccc(NC(=O)C2CCOC2)c1 (stereo unspecified)
IC50 [31]: 1.33 µM (active)

COc1ccc(S(=O)(=O)Nc2ccc3c(c2)CC(=O)N([C@H](C)CO)C[C@H](C)[C@H](CN(C)Cc2ccc(C(=O)Nc4ccccc4N)cc2)O3)cc1
AC50 [32]: 29.7 µM (active)
AC50 [33]: 23.6 µM (active)
AC50 [34]: 24.6 µM (active)
AC50 [35]: 3.19 µM (active)

CC(C)(C)OC(=O)NCCOCCOCCOc1ccc(N(C(=O)CCl)C(C(=O)NCCc2ccccc2)c2cccs2)cc1Cl (stereo unspecified)
AC50 [36]: 0.156 µM (active)
AC50 [37]: 0.177 µM (active)
AC50 [38]: 0.492 µM (active)
AC50 [39]: 0.126 µM (active)
AC50 [40]: 1.79 µM (active)
AC50 [41]: 0.675 µM (active)
AC50 [42]: 21.4 µM (active)
AC50 [43]: 21.2 µM (active)
AC50 [44]: 1.45 µM (active)
AC50 [45]: 0.643 µM (active)
AC50 [46]: 0.738 µM (active)
